According to US8772300B2, “Phenyl or pyridinyl-ethynyl derivatives” (Hoffmann-La Roche Inc., priority 2011, dated 2014):

Target: T1, human mGlu5a receptor (Homo sapiens, UniProt P41594)
T1 construct: expressed in transfected cells
Assay: Intracellular Ca2+ mobilization assay (mGlu5 PAM)
Assay type: cell-based
Conditions: for Emax: HEK293, maximal response in % of the maximal stimulatory effect obtained with saturating concentrations of L-glutamate, HEK-293 human mGlu5a cells, read-out: Eff. (%); for EC50: HEK-293 cells stably transfected with human mGlu5a receptor, L-glutamate added at EC20 (typically around 80 μM) after 10-30 min pre-incubation with test compound, read-out: EC50 (nM) mGlu5PAM
Method: A monoclonal HEK-293 cell line stably transfected with a cDNA encoding for the human mGlu5a receptor was generated; for the work with mGlu5 Positive Allosteric Modulators (PAMs), a cell line with low receptor expression levels and low constitutive receptor activity was selected to allow the differentiation of agonistic versus PAM activity. Cells were cultured according to standard protocols (Freshney, 2000) in Dulbecco's Modified Eagle Medium with high glucose supplemented with 1 mM glutamine, 10% (vol/vol) heat-inactivated bovine calf serum, Penicillin/Streptomycin, 50 μg/ml hygromycin and 15 μg/ml blasticidin (all cell culture reagents and antibiotics from Invitrogen, Basel, Switzerland).
About 24 hrs before an experiment, 5×10^4 cells/well were seeded in poly-D-lysine coated, black/clear-bottomed 96-well plates. The cells were loaded with 2.5 μM Fluo-4AM in loading buffer (1×HBSS, 20 mM HEPES) for 1 hr at 37° C. and washed five times with loading buffer. The cells were transferred into a Functional Drug Screening System 7000 (Hamamatsu, Paris, France), and 11 half logarithmic serial dilutions of test compound at 37° C. were added and the cells were incubated for 10-30 min with on-line recording of fluorescence. Following this pre-incubation step, the agonist L-glutamate was added to the cells at a concentration corresponding to EC20 (typically around 80 μM) with on-line recording of fluorescence; in order to account for day-to-day variations in the responsiveness of cells, the EC20 of glutamate was determined immediately ahead of each experiment by recording of a full dose-response curve of glutamate.
Responses were measured as peak increase in fluorescence minus basal (i.e. fluorescence without addition of L-glutamate), normalized to the maximal stimulatory effect obtained with saturating concentrations of L-glutamate. Graphs were plotted with the % maximal stimulatory using XLfit, a curve fitting program that iteratively plots the data using Levenburg Marquardt algorithm. The single site competition analysis equation used was y=A+((B−A)/(1+((x/C)D))), where y is the % maximal stimulatory effect, A is the minimum y, B is the maximum y, C is the EC50, x is the log 10 of the concentration of the competing compound and D is the slope of the curve (the Hill Coefficient). From these curves the EC50 (concentration at which half maximal stimulation was achieved), the Hill coefficient as well as the maximal response in % of the maximal stimulatory effect obtained with saturating concentrations of L-glutamate were calculated.
A depression of the signal observed after addition of the EC20 concentration of L-glutamate was indicative of an inhibitory activity of the test compound.

T1 sequence (P41594 21-1180 isoform P41594-2 limits assumed): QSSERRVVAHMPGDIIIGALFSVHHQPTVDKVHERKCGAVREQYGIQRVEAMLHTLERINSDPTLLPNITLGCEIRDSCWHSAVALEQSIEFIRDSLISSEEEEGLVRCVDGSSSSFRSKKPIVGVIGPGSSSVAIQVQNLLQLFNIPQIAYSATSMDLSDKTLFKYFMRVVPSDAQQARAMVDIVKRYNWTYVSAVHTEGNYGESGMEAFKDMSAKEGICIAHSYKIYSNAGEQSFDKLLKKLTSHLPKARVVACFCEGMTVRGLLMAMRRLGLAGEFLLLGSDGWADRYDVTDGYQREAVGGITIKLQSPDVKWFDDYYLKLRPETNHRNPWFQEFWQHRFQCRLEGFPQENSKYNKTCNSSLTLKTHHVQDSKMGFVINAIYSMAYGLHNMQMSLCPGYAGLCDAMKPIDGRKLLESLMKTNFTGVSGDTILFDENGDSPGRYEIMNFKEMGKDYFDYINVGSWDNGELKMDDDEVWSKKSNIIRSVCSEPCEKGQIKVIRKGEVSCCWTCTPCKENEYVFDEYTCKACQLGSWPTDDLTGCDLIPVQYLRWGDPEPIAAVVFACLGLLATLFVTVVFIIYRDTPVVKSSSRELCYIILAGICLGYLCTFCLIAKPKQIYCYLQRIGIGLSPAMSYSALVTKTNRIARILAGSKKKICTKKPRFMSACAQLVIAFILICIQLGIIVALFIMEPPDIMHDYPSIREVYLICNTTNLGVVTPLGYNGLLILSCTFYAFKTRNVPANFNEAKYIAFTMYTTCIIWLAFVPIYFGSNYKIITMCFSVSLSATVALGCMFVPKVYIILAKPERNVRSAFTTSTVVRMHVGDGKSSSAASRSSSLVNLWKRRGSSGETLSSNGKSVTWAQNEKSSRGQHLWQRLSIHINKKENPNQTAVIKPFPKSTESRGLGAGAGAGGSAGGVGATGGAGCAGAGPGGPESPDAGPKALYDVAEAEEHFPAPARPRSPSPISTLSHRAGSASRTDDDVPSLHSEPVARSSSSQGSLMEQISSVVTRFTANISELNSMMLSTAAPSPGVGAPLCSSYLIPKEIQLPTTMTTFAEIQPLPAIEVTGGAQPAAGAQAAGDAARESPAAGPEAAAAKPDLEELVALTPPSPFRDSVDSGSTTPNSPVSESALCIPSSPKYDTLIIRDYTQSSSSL

| Structure (SMILES) | Emax [%] | EC50 [nM] |
| --- | --- | --- |
| CN(C(=O)c1ccc(C#Cc2ccc(F)cc2)cn1)C(C)(C)C [Example 4, 5-(4-Fluoro-phenylethynyl)-pyridine-2-carboxylic Acid tert-butyl-methyl-amide] | 83 | 18 |
| CC(C)(C)NC(=O)c1ncc(C#Cc2cccc(Cl)c2)cn1 [Example 14, 5-(3-Chloro-phenylethynyl)-pyrimidine-2-carboxylic Acid tert-butylamide] | 95 | 111 |
| CN(C(=O)c1ccc(C#Cc2cccc(Cl)c2)cn1)C1(C(F)(F)F)CC1 [Example 33, 5-(3-Chloro-phenylethynyl)-pyridine-2-carboxylic Acid methyl-(1-trifluoromethyl-cyclopropyl)-amide] | 37 | 33 |
| CN(C(=O)c1ccc(C#Cc2ccc(F)cc2)cn1)C1(C)COC1 [Example 28, 5-(4-Fluoro-phenylethynyl)-pyridine-2-carboxylic Acid methyl-(3-methyl-oxetan-3-yl)-amide] | 68 | 37 |
| CN(C(=O)c1ncc(C#Cc2ccc(F)cc2)cn1)C(C)(C)C [Example 11, 5-(4-Fluoro-phenylethynyl)-pyrimidine-2-carboxylic Acid tert-butyl-methyl-amide] | 69 | 34 |
| CN(C(=O)c1ccc(C#Cc2cccnc2)cn1)C(C)(C)C [Example 6, 5-Pyridin-3-ylethynyl-pyridine-2-carboxylic Acid tert-butyl-methyl-amide] | 70 | 72 |
| CN(C(=O)c1ncc(C#Cc2cccc(F)c2)cc1F)C(C)(C)C [Example 21, 3-Fluoro-5-(3-fluoro-phenylethynyl)-pyridine-2-carboxylic Acid tert-butyl-methyl-amide] | 54 | 18 |
| CC1(C)CCCN(C(=O)c2ncc(C#Cc3ccccc3)cn2)C1 [Example 46, (3,3-Dimethyl-piperidin-1-yl)-(5-phenylethynyl-pyrimidin-2-yl)-methanone] | 59 | 50 |
| CN(C(=O)c1ncc(C#Cc2cncc(Cl)c2)cc1F)C(C)(C)C [Example 24, 5-(5-Chloro-pyridin-3-ylethynyl)-3-fluoro-pyridine-2-carboxylic Acid tert-butyl-methyl-amide] | 29 | 11 |
| CN(C(=O)c1ccc(C#Cc2ccccc2)cn1)C(C)(C)C [Example 2, 5-Phenylethynyl-pyridine-2-carboxylic Acid tert-butyl-methyl-amide] | 87 | 19 |
| CN(C(=O)c1ccc(C#Cc2ccc(F)cc2)cn1)C1(C)CC1 [Example 32, 5-(4-Fluoro-phenylethynyl)-pyridine-2-carboxylic Acid methyl-(1-methyl-cyclopropyl)-amide] | 59 | 24 |
| CN(C(=O)c1ncc(C#Cc2cccc(F)c2)cn1)C(C)(C)C [Example 12, 5-(3-Fluoro-phenylethynyl)-pyrimidine-2-carboxylic Acid tert-butyl-methyl-amide] | 55 | 23 |
| CN(C(=O)c1ncc(C#Cc2cc(F)ccc2F)cc1F)C(C)(C)C [Example 23, 5-(2,5-Difluoro-phenylethynyl)-3-fluoro-pyridine-2-carboxylic Acid tert-butyl-methyl-amide] | 38 | 10 |
| CC(C)(C)NC(=O)c1ncc(C#Cc2cccc(F)c2)cn1 [Example 10, 5-(3-Fluoro-phenylethynyl)-pyrimidine-2-carboxylic Acid tert-butylamide] | 81 | 36 |
| CN(C(=O)c1ccc(C#Cc2ccc(F)c(F)c2)cn1)C1(C)COC1 [Example 30, 5-(3,4-Difluoro-phenylethynyl)-pyridine-2-carboxylic Acid methyl-(3-methyl-oxetan-3-yl)-amide] | 50 | 60 |

Next, values leading:

| Emax [%] | EC50 [nM] | Structure (SMILES) |
| --- | --- | --- |
| 42 | 34 | CC1(C)CC(O)CCN1C(=O)c1ccc(C#Cc2cc(F)ccc2F)cn1 (racemic) [Example 64, (RS)-[5-(2,5-Difluoro-phenylethynyl)-pyridin-2-yl]-(4-hydroxy-2,2-dimethyl-piperidin-1-yl)-methanone] |
| 57 | 54 | CC1(C)CC(O)CCN1C(=O)c1ncc(C#Cc2cccc(F)c2)cc1F (racemic) [Example 67, (RS)-[3-Fluoro-5-(3-fluoro-phenylethynyl)-pyridin-2-yl]-(4-hydroxy-2,2-dimethyl-piperidin-1-yl)-methanone] |
| 44 | 56 | CC1(C)CN(C(=O)c2ccc(C#Cc3cc(F)ccc3F)cn2)CCO1 [Example 36, [5-(2,5-Difluoro-phenylethynyl)-pyridin-2-yl]-(2,2-dimethyl-morpholin-4-yl)-methanone] |
| 30 | 57 | CC(C)(NC(=O)c1ncc(C#Cc2ccnc(Cl)c2)cn1)C(F)(F)F [Example 58, 5-(2-Chloro-pyridin-4-ylethynyl)-pyrimidine-2-carboxylic Acid (2,2,2-trifluoro-1,1-dimethyl-ethyl)-amide] |
| 83 | 61 | CC(NC(=O)c1ccc(C#Cc2cccc(Cl)c2)cn1)C(F)(F)F (racemic) [Example 61, (RS)-5-(3-Chloro-phenylethynyl)-pyridine-2-carboxylic Acid (2,2,2-trifluoro-1-methyl-ethyl)-amide] |
| 45 | 72 | CC1(C)CN(C(=O)c2ccc(C#Cc3cccc(F)c3)cn2)CCC1O (racemic) [Example 41, (RS)-[5-(3-Fluoro-phenylethynyl)-pyridin-2-yl]-(4-hydroxy-3,3-dimethyl-piperidin-1-yl)-methanone] |
| 69 | 66 | CC(N(C)C(=O)c1ncc(C#Cc2ccccc2)cc1F)C(F)(F)F (racemic) [Example 51, (RS)-3-Fluoro-5-phenylethynyl-pyridine-2-carboxylic Acid methyl-(2,2,2-trifluoro-1-methyl-ethyl)-amide] |
| 69 | 36 | CN(C(=O)c1ncc(C#Cc2ccccc2)cc1Cl)C(C)(C)C [Example 43, 3-Chloro-5-phenylethynyl-pyridine-2-carboxylic Acid tert-butyl-methyl-amide] |
| 35 | 25 | CC(N(C)C(=O)c1ccc(C#Cc2cccc(Cl)c2)cn1)C(F)(F)F (racemic) [Example 62, (RS)-5-(3-Chloro-phenylethynyl)-pyridine-2-carboxylic acid methyl-(2,2,2-trifluoro-1-methyl-ethyl)-amide] |
